# In patent US20230146870A1, “METHOD TO QUANTIFY AFFINITY AND SELECTIVITY OF SMALL MOLECULES FOR PROTEINS IN LIVING CELLS” (Ohio State Innovation Foundation, priority 2021, published 2023):
# Tests used:
# [1] = target: native (untagged) murine PKCη (Mus musculus, UniProt P23298); experiment: FPCBA competition with probe 1, native PKCη in HEK293 cells; format: binding; design: expressed in transfected cells; host or cells: HEK293 (ATCC CRL-1573), transient transfection with pIRES-mVenus carrying the PKC gene; details: read-out: Cellular Ki for native PKCη (95% confidence interval); probe 1 400 nM, BIM1 2 μM, 2 h at 37° C.
# PKCθ = PKCθ (Homo sapiens, UniProt Q04759); details: radiolabeled PDBu at 4° C.; read-out: Biochemical Ki, PKCθ; cited from earlier work
# PKCβI = PKCβI (Homo sapiens, UniProt P05771); details: radiolabeled PDBu at 4° C.; read-out: Biochemical Ki, PKCβI; cited from earlier work
# [2] = target: T1, native (untagged) murine PKCζ (Mus musculus, UniProt Q02956); experiment: FPCBA competition with probe 1, native PKCζ in HEK293 cells; format: binding; design: expressed in transfected cells; host or cells: HEK293 (ATCC CRL-1573), transient transfection with pIRES-mVenus carrying the PKC gene; details: probe 1 400 nM, BIM1 2 μM, 2 h at 37° C.
# T1 sequence (Q02956 1-592): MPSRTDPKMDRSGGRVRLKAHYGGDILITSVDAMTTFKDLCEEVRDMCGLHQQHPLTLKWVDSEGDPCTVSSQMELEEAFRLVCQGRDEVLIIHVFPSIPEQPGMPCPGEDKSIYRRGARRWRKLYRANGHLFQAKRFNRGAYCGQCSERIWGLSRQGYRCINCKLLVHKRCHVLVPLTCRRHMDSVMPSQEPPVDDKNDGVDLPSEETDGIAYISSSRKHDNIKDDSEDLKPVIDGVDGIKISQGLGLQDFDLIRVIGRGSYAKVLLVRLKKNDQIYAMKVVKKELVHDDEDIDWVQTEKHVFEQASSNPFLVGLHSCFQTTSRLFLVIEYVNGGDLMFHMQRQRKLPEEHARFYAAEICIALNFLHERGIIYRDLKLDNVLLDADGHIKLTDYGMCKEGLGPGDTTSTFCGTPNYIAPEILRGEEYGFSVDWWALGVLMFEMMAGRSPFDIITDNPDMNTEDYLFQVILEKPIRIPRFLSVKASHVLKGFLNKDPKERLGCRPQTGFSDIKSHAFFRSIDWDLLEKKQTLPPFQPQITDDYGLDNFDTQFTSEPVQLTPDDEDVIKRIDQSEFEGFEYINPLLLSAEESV
# [3] = target: native (untagged) murine PKCα (Mus musculus, UniProt P20444); experiment: FPCBA competition with probe 1, native PKCα in HEK293 cells; format: binding; design: For coexpression of full-length unmodified PKC proteins with mVenus as an independent marker; expressed in transfected cells; host or cells: HEK293 (transient, pIRES-mVenus); details: read-out: Cellular Ki for native PKCα (95% confidence interval); probe 1 400 nM, BIM1 2 μM, 2 h at 37° C.
# PKCγ = PKCγ (Homo sapiens, UniProt P05129); details: radiolabeled PDBu at 4° C.; read-out: Biochemical Ki, PKCγ; cited from earlier work
# PKCα = PKCα (Homo sapiens, UniProt P17252); details: radiolabeled PDBu at 4° C.; read-out: Biochemical Ki, PKCα; cited from earlier work
# murine PKCδ-mVenus = murine PKCδ-mVenus (Mus musculus, UniProt P28867); experiment: FPCBA saturation binding of probe 1, HEK293 cells expressing PKCδ-mVenus (Example 3)
# murine PKCα-mVenus = murine PKCα-mVenus (Mus musculus, UniProt P20444); experiment: FPCBA saturation binding of probe 1, HEK293 cells expressing PKCα-mVenus (Example 3)
# PKCβI-mVenus = target: T2, PKCβI-mVenus (Mus musculus, UniProt P68404); experiment: Confocal microscopy of translocation of PKCβI-mVenus in HEK293 cells; format: cell-based; details: 2 μM, 2 h
# T2 construct: we generated expression vectors for eight full-length mouse isozymes; expressed in transfected cells; host or cells: HEK293 (ATCC CRL-1573), transient transfection with CMV-PKC betaI-mVenus-N1
# Protocol: FIGS. 36A-36D provide confocal and DIC micrographs of living HEK293 cells transiently transfected to express PKCβI-mVenus. […] Scale bars=10 microns.
# This IRES vector was derived from a previously reported^52 variant encoding the somewhat less fluorescent protein Venus.
# Living cells cultured on an 8-well chamber glass slide (Ibidi μ-Slide, 300 μL, 100,000 cells/well) were imaged with an inverted Leica TCS SP8 confocal laser-scanning microscope (63× oil-immersion objective). Fluorescent probes were excited at 405 nm and mVenus was excited at 488 nm. Emitted photons were collected from 425-500 nm and 500-650 nm. For imaging, transiently transfected HEK293 cells in complete medium (10% FBS) were plated on the Ibidi μ-Slide for 16 h to promote adherence. Concentrated stock solutions of fluorescent probes in DMSO were serially diluted 500-fold in serum-free DMEM medium to afford 2× stock solutions (0.2% DMSO). Half of the cell culture medium (150 μL) was carefully removed by pipet and gently replaced with the 2× stock solution of the probe in serum-free medium (final [FBS]˜5%). Cells were treated with probes (2 μM) at 37° C. for 2 h before imaging by microscopy. Laser power and PMT gain settings were identical for all images and controls within a given experiment for accurate comparisons of cellular fluorescence.
# mouse PKCβI-mVenus = target: T3, mouse PKCβI-mVenus (Mus musculus, UniProt P68404); experiment: Apparent cellular Kd by flow cytometry, HEK293 cells overexpressing PKCβI-mVenus (Example 2); format: binding
# T3 construct: eight plasmids encoding full length mouse PKC isozymes fused to; expressed in transfected cells; host or cells: HEK293
# Protocol: The apparent Kd values of these fluorescent probes were measured using different PKC isozymes (e.g., PKCβI, FIGS. 20A-20D). HEK293 cells were transfected to overexpress PKCβ-mVenus and treated with probes in the presence of verapamil (100 μM) as an inhibitor of efflux.
# T2 sequence (P68404 whole entry): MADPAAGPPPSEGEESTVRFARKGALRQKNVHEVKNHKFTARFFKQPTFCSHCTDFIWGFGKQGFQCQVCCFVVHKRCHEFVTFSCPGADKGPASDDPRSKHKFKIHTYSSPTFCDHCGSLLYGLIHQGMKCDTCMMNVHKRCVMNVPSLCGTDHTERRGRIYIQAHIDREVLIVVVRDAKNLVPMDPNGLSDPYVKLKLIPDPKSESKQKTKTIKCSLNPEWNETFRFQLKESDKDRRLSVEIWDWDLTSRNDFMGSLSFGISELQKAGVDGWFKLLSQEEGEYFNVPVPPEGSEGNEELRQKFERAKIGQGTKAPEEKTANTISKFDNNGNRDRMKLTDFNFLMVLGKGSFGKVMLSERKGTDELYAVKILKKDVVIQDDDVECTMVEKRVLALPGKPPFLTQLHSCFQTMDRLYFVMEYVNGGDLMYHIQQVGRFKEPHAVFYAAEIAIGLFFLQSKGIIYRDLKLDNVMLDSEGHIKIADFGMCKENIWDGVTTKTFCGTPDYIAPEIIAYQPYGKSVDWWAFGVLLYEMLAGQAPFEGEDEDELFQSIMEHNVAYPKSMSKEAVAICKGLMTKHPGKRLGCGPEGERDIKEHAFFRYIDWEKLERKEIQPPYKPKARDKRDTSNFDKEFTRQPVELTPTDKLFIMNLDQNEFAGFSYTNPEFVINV
# T3 sequence (P68404 whole entry, the tested form may be a part): as the sequence (P68404 whole entry) above
# Chain of native (untagged) murine PKCη (P23298 whole entry): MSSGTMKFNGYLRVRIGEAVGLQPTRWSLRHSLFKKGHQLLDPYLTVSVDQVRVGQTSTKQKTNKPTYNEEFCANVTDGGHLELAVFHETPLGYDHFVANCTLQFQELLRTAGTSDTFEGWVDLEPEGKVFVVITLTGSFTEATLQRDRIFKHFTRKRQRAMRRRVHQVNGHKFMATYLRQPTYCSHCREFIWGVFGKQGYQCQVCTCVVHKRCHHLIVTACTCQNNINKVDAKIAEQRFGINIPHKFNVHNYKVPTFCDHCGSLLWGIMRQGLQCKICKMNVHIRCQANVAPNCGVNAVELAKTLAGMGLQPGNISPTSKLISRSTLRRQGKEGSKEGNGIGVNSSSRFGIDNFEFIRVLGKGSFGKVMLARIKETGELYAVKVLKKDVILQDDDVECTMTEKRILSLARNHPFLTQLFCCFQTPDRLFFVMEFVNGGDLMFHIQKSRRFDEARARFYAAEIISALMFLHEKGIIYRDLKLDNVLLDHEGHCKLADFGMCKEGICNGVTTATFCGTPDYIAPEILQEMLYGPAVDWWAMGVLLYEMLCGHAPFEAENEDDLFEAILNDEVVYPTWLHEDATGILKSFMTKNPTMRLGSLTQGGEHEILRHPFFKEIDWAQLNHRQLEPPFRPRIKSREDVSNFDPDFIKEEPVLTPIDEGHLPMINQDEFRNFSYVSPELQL
# Chain of PKCθ (Q04759 whole entry): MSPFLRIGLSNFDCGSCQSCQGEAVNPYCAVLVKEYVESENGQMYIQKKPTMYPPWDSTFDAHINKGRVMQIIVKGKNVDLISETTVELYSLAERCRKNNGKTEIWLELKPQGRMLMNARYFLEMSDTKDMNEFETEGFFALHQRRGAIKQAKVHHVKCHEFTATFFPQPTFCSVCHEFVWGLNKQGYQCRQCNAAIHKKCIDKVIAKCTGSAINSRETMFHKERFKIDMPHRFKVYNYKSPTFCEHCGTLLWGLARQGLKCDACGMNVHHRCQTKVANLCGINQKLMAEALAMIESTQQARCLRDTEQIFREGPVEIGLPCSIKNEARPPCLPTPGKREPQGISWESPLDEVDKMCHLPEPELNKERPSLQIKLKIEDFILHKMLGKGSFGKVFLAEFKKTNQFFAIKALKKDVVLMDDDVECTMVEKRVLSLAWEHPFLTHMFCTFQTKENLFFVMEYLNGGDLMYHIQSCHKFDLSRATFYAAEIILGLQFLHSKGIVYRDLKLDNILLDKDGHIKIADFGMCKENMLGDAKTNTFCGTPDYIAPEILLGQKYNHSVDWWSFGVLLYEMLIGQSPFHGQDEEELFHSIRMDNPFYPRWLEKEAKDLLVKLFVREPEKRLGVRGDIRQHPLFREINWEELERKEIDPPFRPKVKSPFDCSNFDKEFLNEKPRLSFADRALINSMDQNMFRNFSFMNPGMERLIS
# Chain of PKCβI (P05771 whole entry): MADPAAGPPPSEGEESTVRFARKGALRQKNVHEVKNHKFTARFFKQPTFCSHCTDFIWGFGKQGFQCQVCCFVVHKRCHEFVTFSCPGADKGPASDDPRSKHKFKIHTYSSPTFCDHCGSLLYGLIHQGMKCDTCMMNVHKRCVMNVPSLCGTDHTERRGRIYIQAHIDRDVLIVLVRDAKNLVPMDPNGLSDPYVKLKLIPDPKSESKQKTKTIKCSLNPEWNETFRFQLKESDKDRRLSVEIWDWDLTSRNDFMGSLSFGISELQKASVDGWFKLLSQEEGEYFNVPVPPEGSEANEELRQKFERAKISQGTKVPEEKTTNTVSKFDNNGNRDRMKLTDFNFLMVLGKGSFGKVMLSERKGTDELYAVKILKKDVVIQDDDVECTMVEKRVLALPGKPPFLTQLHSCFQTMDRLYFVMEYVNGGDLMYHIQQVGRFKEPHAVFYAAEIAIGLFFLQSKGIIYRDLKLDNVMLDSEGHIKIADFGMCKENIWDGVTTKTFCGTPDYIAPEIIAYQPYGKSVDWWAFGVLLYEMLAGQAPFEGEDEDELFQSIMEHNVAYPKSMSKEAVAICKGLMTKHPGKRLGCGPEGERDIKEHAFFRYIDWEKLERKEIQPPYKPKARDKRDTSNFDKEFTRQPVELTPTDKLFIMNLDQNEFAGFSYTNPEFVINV
# Chain of murine PKCδ-mVenus (P28867 whole entry): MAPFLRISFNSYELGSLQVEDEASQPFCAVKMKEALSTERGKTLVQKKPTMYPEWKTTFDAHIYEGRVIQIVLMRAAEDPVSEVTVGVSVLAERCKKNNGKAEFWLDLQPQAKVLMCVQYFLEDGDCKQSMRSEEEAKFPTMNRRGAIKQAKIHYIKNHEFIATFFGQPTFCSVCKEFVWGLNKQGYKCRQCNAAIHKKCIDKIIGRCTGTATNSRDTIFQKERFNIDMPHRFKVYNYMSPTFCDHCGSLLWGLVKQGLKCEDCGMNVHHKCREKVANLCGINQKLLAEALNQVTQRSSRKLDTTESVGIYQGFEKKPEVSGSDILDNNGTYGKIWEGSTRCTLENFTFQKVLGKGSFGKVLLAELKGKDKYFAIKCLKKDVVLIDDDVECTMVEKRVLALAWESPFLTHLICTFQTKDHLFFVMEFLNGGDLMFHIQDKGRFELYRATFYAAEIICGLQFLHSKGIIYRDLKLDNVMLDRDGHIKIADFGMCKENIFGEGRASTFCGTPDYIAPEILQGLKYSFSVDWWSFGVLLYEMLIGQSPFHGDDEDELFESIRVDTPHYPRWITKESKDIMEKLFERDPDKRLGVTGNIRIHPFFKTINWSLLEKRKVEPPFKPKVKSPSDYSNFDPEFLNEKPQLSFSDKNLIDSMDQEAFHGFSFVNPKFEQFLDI
Compound,Ki [1] [nM],Ki (PKCθ) [nM],Ki (PKCβI) [nM],Cellular Ki for native PKCζ [2],Ki [3] [nM],Ki (PKCγ) [nM],Ki (PKCα) [nM],Kd (murine PKCδ-mVenus) [nM],Kd (murine PKCα-mVenus) [nM],translocation of PKCβI-mVenus (PKCβI-mVenus),Kd (mouse PKCβI-mVenus) [nM]
CCC/C=C/C=C/C(=O)O[C@H]1/C(=C/C(=O)OC)C[C@H]2C[C@H]([C@@H](C)O)OC(=O)C[C@H](O)C[C@@H]3C[C@H](OC(C)=O)C(C)(C)[C@](O)(C[C@@H]4C/C(=C/C(=O)OC)C[C@H](/C=C/C(C)(C)[C@]1(O)O2)O4)O3 [bryostatin 1],9,1.5,2.2,No binding,3,2.2,0.81,,,,
"CCCCCCN(CCCCCCCCCCCCNC(=O)c1cc2cc(F)c(O)c(F)c2oc1=O)C(=O)O[C@@]12[C@H](O)[C@@H](C)[C@@]3(O)[C@@H](C=C(CO)C[C@]4(O)C(=O)C(C)=C[C@@H]34)[C@@H]1C2(C)C [probe 1, (1aR,1bS,4aR,7aS,7bS,8R,9R,9aS)-4a,7b,9-trihydroxy-3-(hydroxymethyl)-1,1,6,8-tetramethyl-5-oxo-1,1a,1b,4,4a,5,7a,7b,8,9-decahydro-9aH-cyclopropa[3,4]benzo[1,2-e]azulen-9a-yl (12-(6,8-difluoro-7-hydroxy-2-oxo-2H-chromene-3-carboxamido)dodecyl)(hexyl)carbamate]",,,,,,,,657 ± 254,314 ± 37,translocated to cellular membranes,190
